Assay results as given in US9809616B2, “Pyrimidine nucleosides and their monophosphate prodrugs for the treatment of viral infections and cancer” (Cocrystal Pharma, Inc., priority 2012, dated 2017).

Tested on: Huh-7 cells
Assay: LC/MS analysis of nucleotides formed after 4 hr incubation of 50 μM drug in Huh-7 cells
Assay type: in vitro ADME
Conditions: 4 hr incubation in Huh-7 cells
Procedure: Shown below are two examples of the LC/MS qualitative analysis of nucleotides formed after 4 h incubation of 50 μM N^4-hydroxycytidine nucleosides and N^4-hydroxycytidine monophosphate prodrugs in Huh-7 cells.

SMILES | Metabolite 2′-OH-2′-Me-U formed in cells | Metabolite 2′-OH-2′-Me-UDP formed in cells | Metabolite 2′-OH-2′-Me-UMP formed in cells | Metabolite 36-MP formed in cells | Metabolite 36 formed in cells | Metabolite 37 in cells | Metabolite 2′-F-2′-Me-U formed in cells | Metabolite 2′-F-2′-Me-UDP formed in cells | Metabolite 2′-F-2′-Me-UMP formed in cells | other results
C[C@@]1(O)[C@H](O)[C@@H](CO)O[C@H]1n1ccc(NO)nc1=O [Compound 37, 1-((2R,3R,4R,5R)-3,4-dihydroxy-5-(hydroxymethyl)-3-methyltetrahydrofuran-2-yl)-4-(hydroxyamino)pyrimidin-2(1H)-one] | BLOQ | BLOQ | BLOQ | BLOQ | BLOQ | BLOQ |  |  |  | Metabolite 2′-OH-2′-Me-UTP formed in cells: BLOQ; Metabolite 36-DP formed in cells: BLOQ; Metabolite 36-TP formed in cells: BLOQ; Metabolite 37-DP formed in cells: BLOQ; Metabolite 37-MP formed in cells: BLOQ
C[C@@]1(F)[C@H](O)[C@@H](CO)O[C@H]1n1ccc(NO)nc1=O [Compound 39, 1-((2R,3R,4R,5R)-3-fluoro-4-hydroxy-5-(hydroxymethyl)-3-methyltetrahydrofuran-2-yl)-4-(hydroxyamino)pyrimidin-2(1H)-one] |  |  |  |  |  |  | BLOQ | BLOQ | BLOQ | Metabolite 38-MP formed in cells: BLOQ; Metabolite 38 formed in cells: BLOQ; Metabolite 39-DP formed in cells: BLOQ; Metabolite 39-MP formed in cells: BLOQ; Metabolite 39-TP formed in cells: BLOQ
CCOC(=O)[C@H](C)NP(=O)(OC[C@H]1O[C@@H](n2ccc(NO)nc2=O)[C@](C)(O)[C@@H]1O)Oc1ccccc1 (stereo partly drawn) [Compound 44, (2S)-ethyl 2-(((((2R,3R,4R,5R)-3,4-dihydroxy-5-(4-(hydroxyamino)-2-oxopyrimidin-1(2H)-yl)-4-methyltetrahydrofuran-2-yl)methoxy)(phenoxy)phosphoryl)amino)propanoate] | BLOQ | BLOQ | BLOQ | BLOQ | BLOQ | BLOQ |  |  |  | Metabolite 44 (prodrug) in cells: 13.3 ± 1.7 pmol/10^6 cells
CCOC(=O)[C@H](C)NP(=O)(OC[C@H]1O[C@@H](n2ccc(NO)nc2=O)[C@](C)(F)[C@@H]1O)Oc1ccccc1 (stereo partly drawn) [Compound 51, (2S)-ethyl 2-(((((2R,3R,4R,5R)-4-fluoro-3-hydroxy-5-(4-(hydroxyamino)-2-oxopyrimidin-1(2H)-yl)-4-methyltetrahydrofuran-2-yl)methoxy)(phenoxy)phosphoryl)amino)propanoate] |  |  |  |  |  |  | BLOQ | BLOQ | BLOQ | Metabolite 51 (prodrug) in cells: 71.5 ± 2.3 pmol/10^6 cells
